Test results: PMC11900313, “Exploring the Potential of Coumarin Derivatives on Serotonin Receptors 5-HT1A and 5HT2A” (International Journal of Molecular Sciences, 2025)
Values joined by “and” are separate entries in the source; they are usually repeats but may differ in a detail not shown here. Equal values may be shown once. Read-outs that look alike come from different tables or passages of the source.

Legend:
5-HT1A receptor [1] = target: T1, 5-HT1A receptor (Rattus norvegicus, UniProt P19327); test: Antagonist activity at 5-HT1A receptors, [35S]GTPγS assay with 8-OH-DPAT stimulation; assay type: biochemical, Sprague–Dawley rats; conditions: for IC50: antagonist activity, [35S]GTPγS
T1 construct: from tissue; host or cells: Sprague-Dawley rat hippocampus membranes
T1 sequence (P19327 1-422): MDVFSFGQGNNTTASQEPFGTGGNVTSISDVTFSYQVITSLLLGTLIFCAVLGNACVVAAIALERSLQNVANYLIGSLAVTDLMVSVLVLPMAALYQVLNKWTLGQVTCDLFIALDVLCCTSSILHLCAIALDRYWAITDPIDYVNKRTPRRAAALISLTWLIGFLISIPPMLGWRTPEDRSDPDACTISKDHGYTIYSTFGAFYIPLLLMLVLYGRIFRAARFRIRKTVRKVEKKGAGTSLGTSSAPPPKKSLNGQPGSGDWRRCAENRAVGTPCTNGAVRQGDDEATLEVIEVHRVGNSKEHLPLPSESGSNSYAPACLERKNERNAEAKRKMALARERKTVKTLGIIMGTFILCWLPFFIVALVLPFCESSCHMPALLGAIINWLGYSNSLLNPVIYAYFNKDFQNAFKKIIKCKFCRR
Experimental: (§1) Sprague–Dawley rats were decapitated under isoflurane anesthesia. Brains were rapidly removed and placed on ice. Hippocampi (for the 5-HT1A assay) or frontal cortices (for the 5-HT2A assay) were dissected on a Petri dish. The tissue from 10 rats was homogenized in 30 vol. homogenization buffer (50 mM Tris-HCl, pH = 4.7, 1 mM EDTA, 1mM dithiothreitol) with a hand held Teflon-glass homogenizer. The homogenate was centrifuged at 48,000× g at 4 °C for 15 min. The pellet was suspended and homogenized in homogenization buffer and incubated for 10 min at 36 °C. The centrifugation and suspension steps were repeated twice. The final pellet was homogenized in 5 vol. 50 mM Tris-HCl, pH = 7.4 buffer and stored at −80 °C for no longer than 6 months.
Then, hippocampal membrane homogenates (15 μg/mL) were added to each well, and the mixture was incubated for 90 min. at 37 °C in a total volume of 250 µL. Non-specific binding was determined with 10 µM of unlabeled GTPγS. The reaction was terminated by vacuum filtration onto GF/C Unifilter Plates (Revvity, Waltham, MA, USA) presoaked with 50 mM Tris-HCl (pH = 7.4) for 1 h with the FilterMate Harvester® (Revvity, Waltham, MA, USA). The samples were then rapidly washed with 2 mL of 50 mM Tris-HCl (pH = 7.4) buffer. The Unifilter plates were dried overnight at RT. After drying, 35 µL of EcoScint-20 scintillant (Revvity, Waltham, MA, USA) was added to each well. Radioactivity was counted in a Trilux MicroBeta^2 counter (Revvity, Waltham, MA, USA). […] The curves were fitted with a one-site non-linear regression model to determine inhibitory potency (IC50). The experiments were repeated twice.

5-HT1A receptor [2] = target: T1, 5-HT1A receptor; test: 5-HT1A competitive radioligand binding assay with [3H]8-OH-DPAT, hippocampal membranes; parameters: species or system Sprague–Dawley rats; conditions: [3H]8-OH-DPAT, hippocampal membranes; 95% CI in brackets
Experimental: as §1
(§2) Non-specific binding was determined with 10 μM serotonin. The final DMSO concentration in the assay was 5%. After incubation, the reaction mixture was deposited with the FilterMate-96 Harvester (Revvity, Waltham, MA, USA) onto Unifilter® GF/C plates (Revvity, Waltham, MA, USA) presoaked in 0.4% PEI for 1 h. Each well was washed with 2 mL of 50 mM Tris-HCl (pH 7.4) buffer to separate bound ligands from free. Plates were left to dry overnight. Then, 35 µL of Microscint-20 scintillation fluid (Revvity, Waltham, MA, USA) was added to each filter well and left to equilibrate for 2 h. Filter-bound radioactivity was counted in a MicroBeta^2 LumiJet scintillation counter (Revvity, Waltham, MA, USA). Binding curves were fitted with one site non-linear regression. The binding affinity (Ki) for each compound was calculated from the EC50 values with the Cheng–Prusoff equation from two separate experiments.

5-HT2A receptor [3] = target: T2, 5-HT2A receptor (Rattus norvegicus, UniProt P14842); test: 5-HT2A competitive radioligand binding assay with [3H]ketanserin, frontal cortex membranes; parameters: species or system Sprague–Dawley rats
T2 construct: from tissue; host or cells: Sprague-Dawley rat frontal cortex membranes
T2 sequence (P14842 whole entry): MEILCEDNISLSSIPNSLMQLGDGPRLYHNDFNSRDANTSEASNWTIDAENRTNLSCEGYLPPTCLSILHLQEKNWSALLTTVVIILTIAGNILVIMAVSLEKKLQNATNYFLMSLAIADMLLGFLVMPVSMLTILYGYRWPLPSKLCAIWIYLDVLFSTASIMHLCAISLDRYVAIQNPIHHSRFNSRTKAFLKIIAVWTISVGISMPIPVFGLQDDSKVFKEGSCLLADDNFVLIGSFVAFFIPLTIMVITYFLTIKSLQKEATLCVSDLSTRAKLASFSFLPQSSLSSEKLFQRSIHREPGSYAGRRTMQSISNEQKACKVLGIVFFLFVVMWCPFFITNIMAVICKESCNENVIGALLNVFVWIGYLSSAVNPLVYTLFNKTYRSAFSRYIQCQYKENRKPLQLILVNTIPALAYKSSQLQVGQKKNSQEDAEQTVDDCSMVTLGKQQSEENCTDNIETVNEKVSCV
Experimental: as §1, §2

5-HT1A receptor [4] = test system: 5-HT1A receptor; parameters: method as in PMID 36769117; conditions: previous study; cited from earlier work
5-HT2A receptor [5] = conditions: earlier study; cited from earlier work
5-HT1A receptor [6] = conditions: earlier study; cited from earlier work
[7] = 1 µM 8-OH-DPAT, 95% CI in brackets, read-out: 5-HT1A IC50 (µM, 95% CI)
[8] = read-out: 5-HT2A Ki (nM, 95% CI)

COc1cccc(N2CCN(CC(O)COc3ccc4c(C)cc(=O)oc4c3)CC2)c1 (centres unmarked) [Compound 10, 7-(2-Hydroxy-3-(4-(3-methoxyphenyl)piperazin-1-yl)propoxy)-4-methyl-2H-chromen-2-one]
IC50 (5-HT1A receptor [1]; [7]): 89.5 µM | Ki (5-HT1A receptor [2]): 87 nM | Ki (5-HT2A receptor [3]; [8]): 260 nM

COc1cccc(N2CCN(CCCCOc3cc4oc(=O)cc(C)c4cc3C(C)=O)CC2)c1 [6-acetyl-7-{4-[4-(3-methoxyphenyl)piperazin-1-yl]butoxy}-4-methylcoumarin]
5-HT1A receptor activity (agonist/antagonist) (5-HT1A receptor [4]): agonist

COc1ccccc1N1CCN(CC(O)COc2cc3oc(=O)cc(C)c3cc2C(C)=O)CC1 (centres unmarked) [Compound 1, 6-Acetyl-7-(2-hydroxy-3-(4-(2-methoxyphenyl)piperazin-1-yl)propoxy)-4-methyl-2H-chromen-2-one]
IC50 (5-HT1A receptor [1]; [7]): 331 µM | Ki (5-HT1A receptor [2]): 243 nM | Ki (5-HT2A receptor [3]; [8]): 1850 nM

COc1ccccc1N1CCN(CC(O)COc2ccc3c(C)cc(=O)oc3c2C(C)=O)CC1 (centres unmarked) [Compound 11, 8-Acetyl-7-(2-hydroxy-3-(4-(2-methoxyphenyl)piperazin-1-yl)propoxy)-4-methyl-2H-chromen-2-one]
IC50 (5-HT1A receptor [1]; given in nM in text, read-out: 5-HT1A IC50): 0.043 µM | 5-HT1A functional profile (5-HT1A receptor [1]; functional assays): significant 5-HT1A antagonistic profile | Ki (5-HT2A receptor [3]; [8]): 6160 nM

COc1cccc(N2CCN(CC(O)COc3ccc4c(C)cc(=O)oc4c3C(C)=O)CC2)c1 (centres unmarked) [Compound 12, 8-Acetyl-7-(2-hydroxy-3-(4-(3-methoxyphenyl)piperazin-1-yl)propoxy)-4-methyl-2H-chromen-2-one]
Ki (5-HT1A receptor [2]): 264 nM | Ki (5-HT2A receptor [3]; [8]): 67 nM

COc1ccccc1N1CCN(CC(O)COc2cc(C)cc3oc(=O)cc(C)c23)CC1 (centres unmarked) [Compound 5, 5-(2-Hydroxy-3-(4-(2-methoxyphenyl)piperazin-1-yl)propoxy)-4,7-dimethyl-2H-chromen-2-one]
IC50 (5-HT1A receptor [1]; [7]): 14.7 µM | Ki (5-HT1A receptor [2]): 90 nM | Ki (5-HT2A receptor [3]; [8]): 1180 nM

COc1ccccc1N1CCN(CC(O)COc2ccc3ccc(=O)oc3c2)CC1 (centres unmarked) [Compound 13, 7-(2-Hydroxy-3-(4-(2-methoxyphenyl)piperazin-1-yl)propoxy)-2H-chromen-2-one]
IC50 (5-HT1A receptor [1]; [7]): 1.43 µM | Ki (5-HT1A receptor [2]): 222 nM | Ki (5-HT2A receptor [3]; [8]): 18 nM

COc1cccc(N2CCN(CC(O)COc3c(C(C)=O)c(C)cc4oc(=O)cc(C)c34)CC2)c1 (centres unmarked) [Compound 8, 6-Acetyl-5-(2-hydroxy-3-(4-(3-methoxyphenyl)piperazin-1-yl)propoxy)-4,7-dimethyl-2H-chromen-2-one]
IC50 (5-HT1A receptor [1]; [7]): 16.2 µM | Ki (5-HT1A receptor [2]): 1780 nM | Ki (5-HT2A receptor [3]; [8]): 115 nM

COc1ccccc1N1CCN(CC(O)COc2cc(=O)oc3ccccc23)CC1 (centres unmarked) [Compound 3, 4-(2-Hydroxy-3-(4-(2-methoxyphenyl)piperazin-1-yl)propoxy)-2H-chromen-2-one]
IC50 (5-HT1A receptor [1]; [7]): 67.8 µM and 68 µM | Ki (5-HT1A receptor [2]): 243 nM | Ki (5-HT2A receptor [3]; [8]): 4010 nM

COc1ccccc1N1CCN(CC(O)COc2ccc3c(C)cc(=O)oc3c2)CC1 (centres unmarked) [Compound 9, 7-(2-Hydroxy-3-(4-(2-methoxyphenyl)piperazin-1-yl)propoxy)-4-methyl-2H-chromen-2-one]
IC50 (5-HT1A receptor [1]; [7]): 2.42 µM and 2.4 µM | Ki (5-HT1A receptor [2]): 245 nM | Ki (5-HT2A receptor [3]; [8]): 291 nM

COc1cccc(N2CCN(CC(O)COc3cc4oc(=O)cc(C)c4cc3C(C)=O)CC2)c1 (centres unmarked) [Compound 2, 6-Acetyl-7-(2-hydroxy-3-(4-(3-methoxyphenyl)piperazin-1-yl)propoxy)-4-methyl-2H-chromen-2-one]
IC50 (5-HT1A receptor [1]; [7]): 58.5 µM and 59 µM | Ki (5-HT1A receptor [2]): 196 nM | Ki (5-HT2A receptor [3]; [3H]ketanserin, frontal cortex membranes, 95% CI in brackets): 83 nM

COc1ccccc1N1CCN(CC(O)COc2c(C(C)=O)c(C)cc3oc(=O)cc(C)c23)CC1 (centres unmarked) [Compound 7, 6-Acetyl-5-(2-hydroxy-3-(4-(2-methoxyphenyl)piperazin-1-yl)propoxy)-4,7-dimethyl-2H-chromen-2-one]
IC50 (5-HT1A receptor [1]; [7]): 2.4 µM | Ki (5-HT1A receptor [2]): 90 nM | Ki (5-HT2A receptor [3]; [8]): 4150 nM

COc1cccc(N2CCN(CC(O)COc3ccc4ccc(=O)oc4c3)CC2)c1 (centres unmarked) [Compound 14, 7-(2-Hydroxy-3-(4-(3-methoxyphenyl)piperazin-1-yl)propoxy)-2H-chromen-2-one]
IC50 (5-HT1A receptor [1]; [7]): 112 µM | Ki (5-HT1A receptor [2]): 135 nM | Ki (5-HT2A receptor [3]; [8]): 68 nM

COc1ccccc1N1CCN(CCCOc2ccc3c(C)cc(=O)oc3c2C(C)=O)CC1 [8-acetyl-7-{3-[4-(2-methoxyphenyl)piperazin-1-yl]propoxy}-4-methylcoumarin]
Ki (5-HT2A receptor [5]): 0.008 µM | Ki (5-HT1A receptor [6]): 0.0006 µM

COc1cccc(N2CCN(CC(O)COc3cc(=O)oc4ccccc34)CC2)c1 (centres unmarked) [Compound 4, 4-(2-Hydroxy-3-(4-(3-methoxyphenyl)piperazin-1-yl)propoxy)-2H-chromen-2-one]
IC50 (5-HT1A receptor [1]; [7]): 10 µM | Ki (5-HT1A receptor [2]): 190 nM | Ki (5-HT2A receptor [3]; [8]): 315 nM

COc1cccc(N2CCN(CC(O)COc3cc(C)cc4oc(=O)cc(C)c34)CC2)c1 (centres unmarked) [Compound 6, 5-(2-Hydroxy-3-(4-(3-methoxyphenyl)piperazin-1-yl)propoxy)-4,7-dimethyl-2H-chromen-2-one]
IC50 (5-HT1A receptor [1]; [7]): 6.5 µM | Ki (5-HT1A receptor [2]): 176 nM | Ki (5-HT2A receptor [3]; [8]): 662 nM
